Reference: patent US20060069132A1, “Azolecarboxamide herbicides” (priority 2004, published 2006)

How the values were obtained:
[1] = system: giant foxtail; assay: Test A pre-/postemergence herbicide test; assay type: in vivo, Setaria faberi
Method in brief: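 Pre: seeded sandy loam, directed soil spray, compound in non-phytotoxic solvent + surfactant. Post: 1–2-leaf plants (2–10 cm), sprayed to runoff. Greenhouse ~10 d; visual injury vs untreated, 0–100 scale.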

[2] = system: common ragweed; assay: Test C pre-/postemergence herbicide test; assay type: in vivo, Ambrosia elatior; design: key to Plant response rating, Ragweed: 0 = no effect, 100 = complete control; conditions: for Ragweed plant response rating: 500 g ai/ha
Method in brief: (§1)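 Visual injury scores run from 0 (no effect) to 100 (complete control), assessed relative to untreated controls 12 to 14 days after treatment in the greenhouse. Chemicals were formulated in a non-phytotoxic solvent mixture with surfactant and applied to soil after planting or to emerged plants at the 1- to 4-leaf stage.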

[3] = system: barnyardgrass; assay: Test C flooded paddy test; assay type: in vivo, Echinochloa crus-galli; conditions: for Plant response rating, Barnyardgrass: 500 g ai/ha, visual rating after 12 to 14 days
Method in brief: (§2)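 Postemergence sprays applied to plants 2 to 18 cm tall (1- to 4-leaf stage); paddy species grown to 2-leaf stage under flooding. After 12 to 14 days in greenhouse, visual rating versus untreated controls on 0–100 scale (0 no effect, 100 complete control).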

[4] = system: chickweed; assay: Test C postemergence herbicide test; assay type: in vivo, Stellaria media; conditions: for Chickweed plant response rating: 500 g ai/ha
Method in brief: as §2

[5] = system: pigweed; assay: Test C pre-/postemergence herbicide test; assay type: in vivo, Amaranthus retroflexus; conditions: for Pigweed plant response rating: 500 g ai/ha
Method in brief: as §1

[6] = system: large crabgrass; assay: Test C pre-/postemergence herbicide test; assay type: in vivo, Digitaria sanguinalis; conditions: for Crabgrass, Large plant response rating: 500 g ai/ha
Method in brief: as §1

[7] = system: rice; assay: Test B pre-/postemergence herbicide test; assay type: in vivo, Oryza sativa; conditions: preemergence
Method in brief: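 Greenhouse pot assay with simultaneous preemergence (treated seed) and postemergence (2–18 cm seedlings) applications of surfactant-containing, non-phytotoxic solvent formulations. Response scored visually 13–15 days later on a 0–100 scale, 100 meaning complete control.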

[8] = system: goosegrass; assay: Test C pre-/postemergence herbicide test; assay type: in vivo, Eleusine indica; conditions: for Goosegrass plant response rating: 500 g ai/ha
Method in brief: as §1

[9] = system: velvetleaf; assay: Test C pre-/postemergence herbicide test; assay type: in vivo, Abutilon theophrasti; conditions: for Velvetleaf plant response rating: 500 g ai/ha
Method in brief: as §1

[10] = system: kochia; assay: Test C pre-/postemergence herbicide test; assay type: in vivo, Kochia scoparia; conditions: for Kochia plant response rating: 500 g ai/ha
Method in brief: as §1

[11] = Postemergence, 500 g ai/ha, 0 to 100 scale, 0 no effect, 100 complete control
[12] = Postemergence, 2000 g ai/ha, 0 to 100 scale, 0 no effect, 100 complete control
[13] = Preemergence, 500 g ai/ha, visual rating, 0 to 100 scale (0 no effect, 100 complete control)
[14] = 125 g ai/ha, scale 0 (no effect) to 100 (complete control), visual, 12 to 14 days, preemergence
[15] = Postemergence, 250 g ai/ha, scale 0 to 100, 0 no effect, 100 complete control
[16] = Preemergence, scale 0 to 100, 0 no effect, 100 complete control
[17] = postemergence, 125 g ai/ha, scale 0 to 100
[18] = postemergence, 62 g ai/ha, scale 0 to 100
[19] = 62 g ai/ha, scale 0 to 100 (0 no effect, 100 complete control)
[20] = 125 g ai/ha, scale of 0 to 100, 0 is no effect, 100 is complete control
[21] = 250 g ai/ha, scale of 0 to 100, 0 is no effect, 100 is complete control
[22] = scale 0 to 100 (0 no effect, 100 complete control)
[23] = 250 g ai/ha, scale 0 to 100 (0 no effect, 100 complete control), visual, 12 to 14 days, preemergence
[24] = 125 g ai/ha, 0 to 100 scale, 0 is no effect, 100 is complete control

CC(=NO)c1cccc(NC(=O)c2cc(C(C)(C)C)nn2CCF)c1 [Compound 115]
0: Plant response rating, Rice [7, 24]
30: Barnyardgrass plant response rating [3, 19]
50: Foxtail, Giant plant response rating [1, 13]
45: Barnyardgrass plant response rating [3, 20]
100: Ragweed plant response rating [2, 16] | Chickweed plant response rating ([4]; Postemergence, scale 0 to 100) | Plant response rating, Chickweed [4, 15] | Plant response rating, Chickweed [4, 17] | Plant response rating, Chickweed [4, 18] | Plant response rating (0 = no effect, 100 = complete control), Pigweed ([5]; 62 g ai/ha, preemergence) | Plant response rating, Pigweed [5, 14] | Pigweed plant response rating ([5]; Postemergence, scale 0 to 100) | Plant response rating, Pigweed [5, 15] | Pigweed plant response rating [5, 16] | Plant response rating, Pigweed [5, 17] | Plant response rating, Pigweed [5, 18] | Plant response rating (0 = no effect, 100 = complete control), Crabgrass, Large ([6]; 62 g ai/ha, preemergence) | Plant response rating, Crabgrass, Large [6, 14] | Plant response rating, Crabgrass, Large [6, 23] | Crabgrass, Large plant response rating [6, 16] | Goosegrass plant response rating [8, 16] | Plant response rating, Velvetleaf [9, 14] | Velvetleaf plant response rating [9, 16] | Plant response rating (0 = no effect, 100 = complete control), Kochia ([10]; 62 g ai/ha, preemergence) | Plant response rating, Kochia [10, 14] | Kochia plant response rating [10, 16]
90: Ragweed plant response rating ([2]; Postemergence, scale 0 to 100) | Crabgrass, Large plant response rating ([6]; Postemergence, scale 0 to 100) | Velvetleaf plant response rating ([9]; Postemergence, scale 0 to 100) | Plant response rating, Velvetleaf [9, 15] | Plant response rating, Velvetleaf [9, 17] | Kochia plant response rating ([10]; Postemergence, scale 0 to 100) | Plant response rating, Kochia [10, 15] | Plant response rating, Kochia [10, 17]
80: Plant response rating, Foxtail, Giant [1, 12] | Foxtail, Giant plant response rating ([1]; Preemergence, 2000 g ai/ha, visual rating, 0 to 100 scale (0 no effect, 100 complete control)) | Plant response rating, Ragweed [2, 14] | Plant response rating, Goosegrass [8, 14] | Plant response rating, Kochia [10, 18]
75: Plant response rating, Barnyardgrass [3, 22]
70: Plant response rating (0 = no effect, 100 = complete control), Ragweed ([2]; 62 g ai/ha, preemergence) | Plant response rating, Ragweed [2, 15] | Plant response rating, Ragweed [2, 17] | Plant response rating, Ragweed [2, 18] | Plant response rating, Crabgrass, Large [6, 15] | Plant response rating, Crabgrass, Large [6, 17] | Plant response rating (0 = no effect, 100 = complete control), Goosegrass ([8]; 62 g ai/ha, preemergence) | Goosegrass plant response rating ([8]; Postemergence, scale 0 to 100) | Plant response rating, Goosegrass [8, 15]
40: Plant response rating, Goosegrass [8, 18]
65: Barnyardgrass plant response rating [3, 21]
60: Foxtail, Giant plant response rating [1, 11] | Plant response rating, Crabgrass, Large [6, 18] | Plant response rating, Goosegrass [8, 17] | Plant response rating, Velvetleaf [9, 18]

CCOC(=O)c1cc(NC(=O)c2cc(C(C)(C)C)nn2CC)ccc1OC [Compound 96]
70: Barnyardgrass plant response rating [3, 21] | Plant response rating, Pigweed [5, 18] | Plant response rating, Rice ([7]; 500 g ai/ha, visual rating 0-100, 0 no effect, 100 complete control) | Plant response rating, Velvetleaf [9, 15] | Plant response rating, Velvetleaf [9, 17]
0: Plant response rating, Crabgrass, Large [6, 17] | Plant response rating, Crabgrass, Large [6, 18]
90: Plant response rating, Ragweed [2, 14] | Plant response rating (0 = no effect, 100 = complete control), Kochia ([10]; 62 g ai/ha, preemergence) | Kochia plant response rating ([10]; Postemergence, scale 0 to 100)
80: Plant response rating, Foxtail, Giant [1, 12] | Plant response rating, Ragweed [2, 15] | Plant response rating, Barnyardgrass [3, 22] | Plant response rating, Goosegrass [8, 14] | Plant response rating, Kochia [10, 17] | Plant response rating, Kochia [10, 18]
5: Crabgrass, Large plant response rating ([6]; Postemergence, scale 0 to 100) | Plant response rating, Crabgrass, Large [6, 15] | Goosegrass plant response rating ([8]; Postemergence, scale 0 to 100) | Plant response rating, Goosegrass [8, 15] | Plant response rating, Goosegrass [8, 17] | Plant response rating, Goosegrass [8, 18]
100: Ragweed plant response rating [2, 16] | Chickweed plant response rating ([4]; Postemergence, scale 0 to 100) | Plant response rating, Chickweed [4, 15] | Plant response rating, Chickweed [4, 17] | Plant response rating, Chickweed [4, 18] | Plant response rating (0 = no effect, 100 = complete control), Pigweed ([5]; 62 g ai/ha, preemergence) | Plant response rating, Pigweed [5, 14] | Pigweed plant response rating ([5]; Postemergence, scale 0 to 100) | Plant response rating, Pigweed [5, 15] | Pigweed plant response rating [5, 16] | Plant response rating, Pigweed [5, 17] | Plant response rating, Crabgrass, Large [6, 14] | Plant response rating, Crabgrass, Large [6, 23] | Crabgrass, Large plant response rating [6, 16] | Velvetleaf plant response rating [9, 16] | Kochia plant response rating [10, 16]
30: Plant response rating (0 = no effect, 100 = complete control), Goosegrass ([8]; 62 g ai/ha, preemergence)
75: Foxtail, Giant plant response rating [1, 13]
40: Plant response rating, Velvetleaf [9, 18]
50: Plant response rating (0 = no effect, 100 = complete control), Ragweed ([2]; 62 g ai/ha, preemergence) | Plant response rating, Ragweed [2, 17] | Plant response rating, Ragweed [2, 18] | Plant response rating, Velvetleaf [9, 14]
95: Foxtail, Giant plant response rating ([1]; Preemergence, 2000 g ai/ha, 0 to 100 scale, 0 no effect, 100 complete control) | Goosegrass plant response rating [8, 16] | Velvetleaf plant response rating ([9]; Postemergence, scale 0 to 100) | Plant response rating, Kochia [10, 14]
45: Barnyardgrass plant response rating [3, 19] | Barnyardgrass plant response rating [3, 20]
85: Ragweed plant response rating ([2]; Postemergence, scale 0 to 100) | Plant response rating (0 = no effect, 100 = complete control), Crabgrass, Large ([6]; 62 g ai/ha, preemergence) | Plant response rating, Kochia [10, 15]
60: Foxtail, Giant plant response rating [1, 11] | Plant response rating, Rice [7, 24]
